The numbers were not newly measured in US7723019B2, “Organic cation transporter preferentially expressed in hematopoietic cells and leukemias and uses thereof” (University of Kentucky Research Foundation, priority 2003, dated 2010), which cites them from elsewhere.

“And” between values parts separate entries of the source, which are not always exact repeats. Identical values can stand only once. Like-named read-outs stand apart in the source and are kept apart here.

One series addresses T1, OCTN2 (SLC22A5) (Homo sapiens, UniProt O76082).
T1 sequence (O76082 1-557): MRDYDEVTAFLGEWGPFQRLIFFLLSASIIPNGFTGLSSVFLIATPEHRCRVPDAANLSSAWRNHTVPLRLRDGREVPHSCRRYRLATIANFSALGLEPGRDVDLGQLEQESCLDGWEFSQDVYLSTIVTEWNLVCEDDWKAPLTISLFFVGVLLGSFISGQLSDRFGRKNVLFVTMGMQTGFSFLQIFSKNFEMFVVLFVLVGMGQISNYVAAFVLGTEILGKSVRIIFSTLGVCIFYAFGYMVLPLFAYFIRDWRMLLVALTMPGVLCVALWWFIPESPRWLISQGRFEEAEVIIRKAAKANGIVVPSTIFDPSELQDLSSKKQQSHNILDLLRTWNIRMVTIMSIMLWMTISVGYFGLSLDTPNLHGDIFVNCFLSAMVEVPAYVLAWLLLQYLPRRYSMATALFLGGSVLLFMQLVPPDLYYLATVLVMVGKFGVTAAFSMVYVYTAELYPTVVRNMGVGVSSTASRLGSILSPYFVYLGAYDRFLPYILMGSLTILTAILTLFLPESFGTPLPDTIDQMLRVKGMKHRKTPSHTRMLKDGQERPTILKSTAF

The target of another series is T2, OCT2 (SLC22A2) (Homo sapiens, UniProt O15244).
T2 sequence (O15244 1-555): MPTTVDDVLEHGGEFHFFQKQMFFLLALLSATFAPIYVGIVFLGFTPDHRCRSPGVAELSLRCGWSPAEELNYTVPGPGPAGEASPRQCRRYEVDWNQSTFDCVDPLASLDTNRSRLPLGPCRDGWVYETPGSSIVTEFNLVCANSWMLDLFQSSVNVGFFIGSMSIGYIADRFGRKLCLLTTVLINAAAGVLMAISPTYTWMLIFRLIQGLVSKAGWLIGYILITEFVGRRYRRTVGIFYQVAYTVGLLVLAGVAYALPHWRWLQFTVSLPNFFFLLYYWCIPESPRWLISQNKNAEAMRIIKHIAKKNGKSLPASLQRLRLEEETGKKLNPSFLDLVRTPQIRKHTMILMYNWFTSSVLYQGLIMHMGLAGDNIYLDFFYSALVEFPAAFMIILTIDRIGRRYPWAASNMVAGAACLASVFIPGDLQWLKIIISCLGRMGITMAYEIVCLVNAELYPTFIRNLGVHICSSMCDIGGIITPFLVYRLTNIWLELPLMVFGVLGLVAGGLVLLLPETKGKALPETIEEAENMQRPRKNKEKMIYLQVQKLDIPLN

The next series concerns the target T3, OCTN1 (SLC22A4) (Homo sapiens, UniProt Q9H015).
T3 sequence (Q9H015 1-551): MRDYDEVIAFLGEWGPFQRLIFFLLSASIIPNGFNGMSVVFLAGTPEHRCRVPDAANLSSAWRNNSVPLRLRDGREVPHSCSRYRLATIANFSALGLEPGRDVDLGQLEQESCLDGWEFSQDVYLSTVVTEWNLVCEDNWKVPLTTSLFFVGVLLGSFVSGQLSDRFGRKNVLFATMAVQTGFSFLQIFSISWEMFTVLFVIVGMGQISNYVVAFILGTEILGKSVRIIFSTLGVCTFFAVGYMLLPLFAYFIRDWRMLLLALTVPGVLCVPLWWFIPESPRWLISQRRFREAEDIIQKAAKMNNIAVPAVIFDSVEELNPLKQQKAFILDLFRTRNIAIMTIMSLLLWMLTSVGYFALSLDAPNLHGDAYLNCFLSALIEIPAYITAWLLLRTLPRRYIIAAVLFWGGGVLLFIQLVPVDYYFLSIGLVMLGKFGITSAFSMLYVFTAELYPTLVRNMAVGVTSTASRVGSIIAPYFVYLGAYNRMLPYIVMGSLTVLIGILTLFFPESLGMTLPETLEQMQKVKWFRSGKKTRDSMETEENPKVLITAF
To be noted: OCTN1, cell type Fibroblasts.

In the next series the target is T4, OCT1 (SLC22A1) (Homo sapiens, UniProt O15245).
T4 construct: host or cells: HeLa; Xenopus
T4 sequence (O15245 1-554): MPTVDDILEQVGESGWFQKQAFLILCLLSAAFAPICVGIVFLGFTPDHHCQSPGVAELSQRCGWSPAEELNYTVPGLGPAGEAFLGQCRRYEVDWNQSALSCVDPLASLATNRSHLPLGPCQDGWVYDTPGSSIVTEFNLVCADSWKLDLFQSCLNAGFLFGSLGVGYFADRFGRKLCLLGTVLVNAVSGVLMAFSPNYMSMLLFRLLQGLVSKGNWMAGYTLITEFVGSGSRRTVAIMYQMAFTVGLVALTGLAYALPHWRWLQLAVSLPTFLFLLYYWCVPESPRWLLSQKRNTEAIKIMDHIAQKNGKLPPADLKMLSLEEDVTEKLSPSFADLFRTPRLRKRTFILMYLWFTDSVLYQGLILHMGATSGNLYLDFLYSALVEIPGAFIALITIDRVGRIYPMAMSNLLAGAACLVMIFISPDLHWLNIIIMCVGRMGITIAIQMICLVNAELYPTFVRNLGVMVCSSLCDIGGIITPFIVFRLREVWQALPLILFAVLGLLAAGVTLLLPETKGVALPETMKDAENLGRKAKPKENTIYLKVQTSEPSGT
The following applies: OCT1, cell type Xenopus.

Series [1] deals with RFC1-transfected MTX^R ZR75 cell line. To be noted: RFC1 transfection into transport-deficient MTX^R ZR75 cells, relative to control cell clones.
The test system of series [2] is reduced folate carrier (RFC). The following applies: read-out: Km for MTX, approximately.

Turning to `CC(=O)O[C@H](CC(=O)[O-])C[N+](C)(C)C` [Acetyl-L-carnitine], the KT at OCTN2 (SLC22A5) (OCTN2, cell type HEK293) was 8.5 µM.

On to `NC12CC3CC(CC(C3)C1)C2` [Amantadine], for which the KT on OCT2 (SLC22A2) (OCT2, cell type Xenopus) was 27 µM.

Consider `C[N+](C)(C)C[C@@H](O)CC(=O)[O-]` [D-Carnitine], for which the KT is 10.9 µM on OCTN2 (SLC22A5) (OCTN2, cell type HEK293) and 98 µM at OCTN2 (SLC22A5) (OCTN2, cell type Xenopus). In the case of `NCCc1ccc(O)c(O)c1` [Dopamine], the KT was 330 µM at OCT2 (SLC22A2) (OCT2, cell type HEK293) and 390 µM on OCT2 (SLC22A2) (OCT2, cell type Xenopus).

As for `NCCc1c[nH]cn1` [Histamine], the KT on OCT2 (SLC22A2) (OCT2, cell type Xenopus) is 1300 µM. For `C[N+](C)(C)C[C@H](O)CC(=O)[O-]` [L-Carnitine], the KT was 6.6 µM at OCTN1 (SLC22A4); 4.34 µM and 4.3 µM on OCTN2 (SLC22A5) (OCTN2, cell type HEK293); 3.5 µM on OCTN2 (SLC22A5) (OCTN2, cell type JAR); 4.8 µM at OCTN2 (SLC22A5) (OCTN2, cell type Xenopus). On to `C[n+]1ccc(-c2ccccc2)cc1` [MPP, 1-methyl-4-phenylpyridinium], for which the KT on OCT2 (SLC22A2) (OCT2, cell type HEK293) is 16 µM; in the series with OCT3 (SLC22A3) (OCT3, cell type HRPE), 47 µM; at OCT1 (SLC22A1), 14.6 µM. In the case of `CN(Cc1cnc2nc(N)nc(N)c2n1)c1ccc(C(=O)N[C@@H](CCC(=O)O)C(=O)O)cc1` [MTX, Methotrexate], in series [1], the “increase in 6-hour MTX uptake” value is recorded as 20 fold and the “increase in sensitivity to MTX” value is on record as 250 fold. The Km (commonly the substrate concentration at which the rate is half of its maximum) in series [2] was 0.8 to 26 µM.

Turning to `CC12CC3CC(C)(C1)CC(N)(C3)C2` [Memantine], the KT at OCT2 (SLC22A2) (OCT2, cell type Xenopus) is 34 µM.

In the case of `NC[C@H](O)c1ccc(O)c(O)c1` [Norepinephrine], on OCT2 (SLC22A2) (OCT2, cell type Xenopus), the KT is 1900 µM. `NCCc1c[nH]c2ccc(O)cc12` [Serotonin]: the KT at OCT2 (SLC22A2) (OCT2, cell type Xenopus) is 80 µM. For `CC[N+](CC)(CC)CC` [TEA, tetraethylammonium], the KT in the series on OCT3 (SLC22A3) (OCT3, cell type HeLa) was 2500 µM.
